The text below walks through data of a melting point compilation (Tetko et al.).

Structures are written as SMILES.

Take `COc1ccc(C(=O)CCC(=O)O)cc1`: the melting point was 149 °C. Compound `OCCN(CCO)c1ccc(N=Nc2ccccc2)cc1` displayed a melting point of 134 °C. Compound `CCn1c2ccccc2c2cc(C=O)ccc21` yielded a melting point of 85 to 91 °C. In turn, `Cc1nc(Nc2ncc(C(=O)Nc3c(C)cccc3Cl)s2)cc(N2CCN(CCO)CC2)n1` gave a melting point of 283 °C. On to `O=C(NC1C2C=CC(C2)C1C(=O)O)OCc1ccccc1` (stereo not given), for which the melting point was 119 to 123 °C.

For the compound `COC(=O)[C@]1(O)CC2=C(c3c1cc(OC)nc3Cl)N(C)CCC2`, the melting point is 153 °C.

Turning to `Cc1ccc2ocnc2c1`, the melting point was 43 °C.

On to `CCOC(=O)C(Cc1c[nH]c2ccccc12)NC(C)=O` (stereo not given), for which the melting point came out at 106 °C.

With `COc1ccc(C2Cc3ccccc3C(O)O2)cc1` (stereo not given), the melting point was found to be 114 °C. As for `O=C1OC(c2ccccc2)c2ccccc21` (stereo not given), the melting point came out at 117 °C. As to `COc1cc(N)c(C#N)cc1OC`, the melting point came to 99 °C. The compound `O=C(O)C(Br)C(Br)c1cccc(C(Br)C(Br)C(=O)O)c1` (stereo not given) returned a melting point of 225 °C. With `O=C(O)c1ccccc1Oc1ccccc1` the figure was 113 °C.

In turn, `COc1ccc(C=O)c(Cl)c1OC` returned a melting point of 71 to 72 °C. `Fc1nc(F)c(Cl)c(F)c1Cl` gave a melting point of 25 °C. Regarding `FC(F)(F)Oc1ccccc1`, the melting point was -50 °C. With `Cc1ccc(S(=O)(=O)C#N)cc1` the figure was 48 °C. Compound `CCOC1OC2C(CO)OC(n3cnc4c(N)ncnc43)C2O1` (stereo not given) had a melting point of 228 to 231 °C. In turn, `CCOC(=O)C=Cc1c[nH]c2ccccc12` returned a melting point of 120 °C. `Brc1ccc(-c2ccc(Br)s2)s1` came in with a melting point of 143 to 146 °C. Consider `CC(=O)OC[C@H]1O[C@@H](OC(C)=O)[C@H](OC(C)=O)[C@@H](OC(C)=O)[C@H]1OC(C)=O`, for which the melting point is 144 °C. As for `COC(=O)c1cc(C)n(C)n1`, the melting point was found to be 93 °C.

For `CC(C)CCCCCCCOC(=O)c1ccccc1C(=O)OCCCCCCCC(C)C`, the melting point is -45.6 °C. With `OCCC(F)(F)C(F)(F)C(F)(F)C(F)(F)C(F)(F)C(F)(F)F`, the melting point was -35 °C. On to `O=C(Cl)c1ccc(Oc2cc(Cl)cc(Cl)c2)o1`, for which the melting point lay within 60 to 62 °C. As to `Nc1c(Cl)cc(F)cc1Br`, the melting point was found to be 56 °C. Compound `O=C1C(Cl)=C(Cl)C(Cl)=C(Cl)C1(Cl)Cl` had a melting point of 46 to 49 °C. Compound `CC1CCC(C)(CO)C1(C)C` (stereo not given) returned a melting point of 94 °C.

`C=Nc1cnn(-c2ncnc3c2cnn3C)c1C=COCC` showed a melting point of 155 °C. Regarding `CC(C)C(c1ccccc1)C(C)C`, the melting point was -24.5 °C. For `CC(=O)Oc1cc(C)c(OC(C)=O)c2ccccc12`, the melting point amounted to 113 °C. As for `COc1ccc(C=NNC(=O)c2ccncc2)cc1OC`, the figure is 189 °C. As for `Nc1ccccc1S(N)(=O)=O`, the figure is 155 °C; as for `COC(=O)C(C(=O)OC)=C1SC2=C(C(=O)c3ccccc3C2=O)N1c1ccccc1`, 239 °C. As for `COc1cc(C(=O)OCCCN(C)CCN(C)CCCOC(=O)c2cc(OC)c(OC)c(OC)c2)cc(OC)c1OC`, the melting point was 76 °C. `Cc1ccc(S(=O)(=O)OC(C(F)(F)F)C(F)(F)F)cc1` yielded a melting point of 39 to 40 °C. `O=NN(CC(c1ccccc1)c1ccccc1)CC(c1ccccc1)c1ccccc1`: the melting point was 179 °C. `CN1CC(=O)NC1=N` showed a melting point of 255 °C. With `N#Cc1c(O)nsc1Nc1ccccc1Cl`, the melting point came out at 100 °C. As to `O=C(O)CCC(=O)c1ccc(Cl)cc1`, the melting point was in the range of 129 to 132 °C.

Turning to `Clc1ccc(C2(Cn3cncn3)CC(Br)CO2)c(Cl)c1` (stereo not given), the melting point worked out at 84 °C. For `O=[N+]([O-])c1cccc(-c2nnc3n2CN(c2ccccc2[N+](=O)[O-])CS3)c1`, the melting point turned out to be 183 °C. With `O=C1C2CCC1C1CCC2O1` the figure was 81 °C. `CC(=O)Nc1cc(CCNC(=O)c2ccccc2)cc(NC(C)=O)c1CCNC(=O)c1ccccc1`: the melting point was determined as 268 °C. `CCCCNCC(O)c1ccc(O)cc1` (stereo not given) had a melting point of 124 °C. With `Clc1ccc2ccccc2c1` the figure was 61 °C; with `COc1cc2c(c3oc(=O)c4c(c13)CCOC4=O)C1CCOC1O2` (stereo not given), 237 to 240 °C; with `O=C1C=CC(=O)N1Cc1ccccc1`, 69 °C. `C=C1CCC(O)CC1=CC=C1CCCC2(C)C1CCC2C(C)C=CC(C)C(C)C` (stereo not given) returned a melting point of 116 °C. With `O=C(Nc1ccccn1)c1ccccc1Cl` the figure was 137 to 139 °C. In turn, `CC(C)(C)c1cc(C(C)(C)C)c(N=O)c(C(C)(C)C)c1` displayed a melting point of 170 to 173 °C.

Compound `Ic1cccc(-c2ccccc2)c1` came in with a melting point of 26.5 °C. Compound `COc1cc(C=C2CCCC(=Cc3ccc(O)c(OC)c3)C2=O)ccc1O` registered a melting point of 178 °C. In turn, `C1CCCCCCCCCCCC1` came in with a melting point of 23 °C.

On to `CC1OC(Oc2c[nH]c3ccc(Br)c(Cl)c23)C(O)C(O)C1O` (stereo not given), for which the melting point was in the range of 213 to 217 °C. `O=C(O)c1ccc(Sc2ccc(Cl)cc2)c([N+](=O)[O-])c1` showed a melting point of 217 to 220 °C. Regarding `O=C(Cl)c1cn(S(=O)(=O)c2ccccc2)c2ccccc12`, the melting point amounted to 144 °C. Compound `CCOC(=O)c1cc(C(=O)OCC)cc(C(=O)OCC)c1` had a melting point of 134 °C. Take `Cc1ccc(C=C2C(=O)OC(C)(C)OC2=O)o1`: the melting point stood at 93 °C. Regarding `O=c1c(I)cn(CC(O)CO)cc1I` (stereo not given), the melting point came to 161 °C. Turning to `CC(=O)OC1CC[C@@]2(C)C(CC[C@@H]3[C@@H]2CC[C@@]2(C)[C@H]3CC[C@@]2(C#Cc2ccccc2)OC(C)=O)C1` (stereo not given in full), the melting point worked out at 166 °C. As for `c1ccc(C2CC2)cc1`, the melting point is -31 °C. `N#Cc1c(C(F)(F)F)cc(-c2cccs2)n(N)c1=O` displayed a melting point of 234 °C. `C/C(=N/NC(N)=O)C(=O)Nc1ccc(Br)cc1` displayed a melting point of 243 to 245 °C.

`CC(c1ccccc1)N1CC(C(=O)O)CC1=O` (stereo not given) registered a melting point of 210 to 213 °C. `COc1cc(O)cc(OC)c1`: the melting point is 46 °C. In the case of `O=C(Nc1nc(-c2ccc(Cl)cc2)cs1)c1ccccc1`, the melting point turned out to be 120 °C. For the compound `CCCCOc1ccc(CC(=O)NO)cc1`, the melting point worked out at 153 °C.

In the case of `CC(=O)OC1(C(C)=O)CCC2C3CCC4=CC(=O)CCC4(C)C3(F)C(O)CC21C` (stereo not given), the melting point turned out to be 268 °C. As for `CC(=O)Oc1cc(OC(C)=O)cc(C(=O)O)c1`, the melting point is 159 °C.

`O=S(=O)(O)CCS(=O)(=O)O` returned a melting point of 173 °C. For the compound `Cc1cc(C)c(NC(=O)C(F)(F)C(F)(F)C(F)(F)C(F)(F)C(F)(F)C(F)(F)C(F)(F)C(F)(F)F)c(C)c1`, the melting point is 63 °C. In turn, `O=Cc1ccccc1OCC(=O)O` had a melting point of 133 °C. `CCOC(=O)N1CCNC(c2ccccc2)C1` (stereo not given) came in with a melting point of 63 °C. On to `CSc1scc2c1C(=NO)CC(C)(C)C2`, for which the melting point fell in the range of 151 to 154 °C. As for `O=C(O)c1cccc(N2CCCC2)n1`, the figure is 134 to 136 °C; as for `Nc1ccc(C(=O)NCCC(=O)O)cc1`, 152 °C. Consider `C=CCC1=C(O)C2=CC=C3C(C)=C(C)C(=O)CC3(C)C2=C(O)C1=O` (stereo not given), for which the melting point amounted to 171 °C.

On to `O=Cc1cc(-c2ccco2)on1`, for which the melting point is 60 to 61 °C. As for `COc1cc(Br)cc(OC)c1OC`, the figure is 78.5 °C; as for `Cc1ccc(C(=O)O)c([N+](=O)[O-])c1O`, 186 °C. With `O=C(Nc1ccc(N=Nc2ccc([N+]([O-])=Nc3ccc(NC(=O)c4ccccc4)cc3)cc2)cc1)c1ccccc1` the figure was 328 °C; with `Cn1c(=O)c(C(N)=NO)cn(-c2ccccc2)c1=O`, 189 to 191 °C; with `CCC(C(=O)O)C1(O)CCC(c2ccccc2)CC1` (stereo not given), 157 °C. With `O=S(=O)(Cl)c1cccc2nsnc12` the figure was 148 to 150 °C; with `CCCCCCCCCCCCCCCC(=O)OC1CCC2(C)C(=CCC3C2CCC2(C)C(C(C)CCCC(C)C)CCC32)C1` (stereo not given), 75 to 77 °C. In the case of `CCCCCC=CCC=CCCCCCCCC(=O)OC`, the melting point is -35 °C. In turn, `O=C(O)C(c1ccccc1)C1CCCC1` (stereo not given) showed a melting point of 96 to 100 °C. In turn, `Cc1noc(-c2ccc(Br)cc2)n1` came in with a melting point of 97 to 98 °C. With `CCC1(N2CCCCC2)C(=O)NC(=O)NC1=O`, the melting point was 215 °C. As for `O=c1cc(C(F)(F)F)n2nc(-c3ccc(Cl)cc3)cc2[nH]1`, the figure is 155 °C; as for `Cc1ccc([N+](=O)[O-])c(CCl)c1`, 41 to 47 °C.

For the compound `CCCCCCCCc1ccccc1`, the melting point was -36 °C.

Compound `CCOC(=O)C(C#N)=Cc1ccc(-c2ccccc2)o1` yielded a melting point of 116 to 117 °C. `Nc1cccc(-c2cncnc2)c1` showed a melting point of 163 to 166 °C. As for `COc1cccc2cc(C(=NO)c3cc4cccc(OC)c4o3)oc12`, the melting point lay in the range of 214 to 215 °C.

With `NC(=S)Nc1ccccn1`, the melting point was in the range of 148 to 150 °C. `COc1ccc(C(=O)c2ccccc2F)cc1[N+](=O)[O-]` yielded a melting point of 133 to 139 °C. With `COc1ccc(CO)cc1OCc1ccccc1`, the melting point turned out to be 85 °C.

On to `CC12CC3(C)CC(C)(C1)CC(C(=O)O)(C2)C3`, for which the melting point is 149 to 151 °C. `CCCCCCCC(=O)Oc1c(Br)cc(C#N)cc1Br` yielded a melting point of 45.5 °C. Consider `CC(=O)OC[C@H]1O[C@@H](OC(C)=O)[C@H](OC(C)=O)[C@@H]1OC(C)=O`, for which the melting point is 79 to 81 °C. As for `O=C=Nc1ccccc1`, the figure is -31.3 °C. With `CCCCCCCCCCCCOc1ccc(C(=O)O)cc1` the figure was 134 °C; with `O=Cc1ccc(Br)c(Br)c1`, 71 °C.
